Measurements taken from patent US20200108032A1, “USE OF ISOFERULIC ACID, ISOFERULIC ACID-CONTAINING TRADITIONAL CHINESE MEDICINE EXTRACT AND CIMICIFUGAE RHIZOMA” (BEIJING DITAN HOSPITAL, CAPITAL MEDICAL UNIVERSITY, priority 2017, published 2020).

Key:
Format in all cases: in vivo, C57BL/6 mice
[1] = tested on: mouse model of ConA hepatitis; assay: Serum ALT and AST in mouse model of ConA hepatitis; conditions: serum 10 hours after ConA 15 mg/kg i.v.; doses as Experimental Example 1; MEAN ± SEM
Procedure: The test materials and animals were the same as those in Experimental Example 1.
Grouping: C57BL/6 mice, male, 18-20 g, after 1 day of adaptive breeding, the mice were randomly divided into 6 groups: normal control group; ConA model group, Cimicifugae rhizoma compatibility group, Cimicifugae rhizoma group, Cimicifugae rhizoma total phenolic acid group and isoferulic acid group.
Model preparation and drug administration: except the normal control group, mice were injected intravenously once at a dose of ConA 15 mg/kg. The dosages of each drug group were the same as those of Experimental Example 1.
(1) The effects of each drug group on serum ALT and AST of ConA mice were examined. Eight mice in each group were sacrificed under anesthesia 10 hours after ConA injection. Peripheral blood was taken and serum was separated to detect ALT and AST.

CIA arthritis mice = assay: Micro-CT of joint structure / bone damage in CIA mice; conditions: 21 days after second immunization, MEAN ± SEM
Excerpt: (§1) Test materials and animals: Consistent with Experimental Example 3. Anti-type II collagen antibody ELISA kit was purchased from Chondrex, Cytokine & Chemokine 36-Plex Mouse ProcartaPlex™ Panel 1A cytokine and chemokine detection kit was purchased from ThermoFisher.
(§2) Model preparation and drug administration: the drug dosage of each treatment group was the same as that of Experimental Example 3. After 21 days of the second immunization, the mice were anesthetized.
(1) Micro-CT technology was used to examine the effect of each drug group on the joint structure of CIA mice. After taking 3 mice from each group, the right hind limbs were taken immediately after neck dissection and fixed in 4% neutral formalin. After 2-3 days of fixation, a micro-CT scan was performed using a live animal imaging system. Extraction site: extracted the data of the area above the tibial plaque plate of the right hind limb of the mouse. 3 sets of data were taken. Size selection: the upper part of the tibial plaque plate (0.25*0.25*0.25); measurement indicators of the extracted bones: bone density, bone volume, bone volume fraction and number of bone trabeculae.

[2] = tested on: anti-type II collagen antibody; assay: Serum anti-type II collagen antibody content in CIA mice (ELISA); conditions: 21 days after second immunization
Excerpt: as §1, §2
(2) The effects of each drug group on the anti-type II collagen antibody content in the serum of CIA mice were measured. Seven mice from each group were examined; peripheral blood was collected and separated from serum. Anti-type II collagen antibodies were detected with Elisa.

serum cytokines = assay: Serum cytokines in CIA arthritis mice (multi-factor detection); conditions: MEAN ± SEM
Excerpt: as §1, §2
(3) The effects of each drug group on cytokine secretion in serum and joint tissues of CIA mice were measured. Seven mice from each group were examined; peripheral blood was collected and separated from serum. Cytokines in serum were detected by multiple factors: IFN-γ, IL-6, IL-9, IL-12, IL-17A, IP-10, MCP-1, MCP-3. MIP-1α, MIP-1β, Eotaxin, and G-CSF; the right hind limb knees, joints and claws were taken and stored in liquid nitrogen for quick freezing, then homogenized and extracted protein. Multi-factor detection of cytokines in tissues: IL-9, IL-18 and MIP-2 secretion.

[3] = tested on: granulocytes and NK cells; assay: Proliferation (Ki-67) of granulocytes and NK cells in CIA arthritis mice (flow cytometry); conditions: intracellular Ki-67 expression; 21 days after second immunization; MEAN ± SEM
Excerpt: Test materials and animals: CD3-PerCP, NK1.1-APC antibody, Ki67-PE antibody, Intracellular Fixation & Permeabilization Buffer Set were purchased from eBioscience; CD48 PE, CD11b FITC and B220-FITC antibodies were purchased from BD Pharmingen company; other required reagents were the same as in Example 7.
Model preparation and drug administration: the administration dose of each treatment group was the same as that of Experimental Example 3. 21 days after the second immunization, the mice were anesthetized.
Animal: C57BL/6 mice, purchased from Beijing Huafukang Biotechnology Co., Ltd.
The proliferation capacity of the spleen Ki-67 expression response cell was detected by flow cytometry. Two tubes of spleen single cell suspension were prepared and used to detect the proliferation of CD48^−CD11b^+ positive granulocytes and CD3^−NK1.1^+B220^−NK cells.
The surface staining procedure was the same as in Experimental Example 7.
Intracellular staining: after surface staining, intracellular staining was performed: 1) added 100 μL of fixed membrane-breaking solution Fixation Buffer, protected it from light at room temperature, fixed the membrane for 40 min; 2) added 1 mL of Permeabilization Buffer and washed twice, discarded the supernatant 3) added 1 μL of Ki-67-PE antibody at room temperature and protected it from light for 40 min; 4) same as step 2); and 5) used flow cytometer BD Calibar to measure the percentages of intracellular Ki-67 expression in CD48^−CD11b+ positive granulocytes, and CD3^−[…]B220^−NK cells, respectively.

COc1ccc(C=CC(=O)O)cc1O [isoferulic acid, 3-hydroxy-4-methoxycinnamic acid]
ALT [1]: 3573 ± 1314 U/L
AST [1]: 4351 ± 1588 U/L
Bone density (CIA arthritis mice; area above tibial plate of right hind limb): 9.5 ± 1.5 mg/cc
Bone volume (CIA arthritis mice; right hind limb): 0.0014 ± 0.0005 mm 3
Bone volume fraction (CIA arthritis mice; right hind limb): 0.095 ± 0.034
number of trabeculae (CIA arthritis mice; right hind limb): 2.042 ± 0.572 1/mm
Anti-type II collagen antibody [2]: 9610 ± 664 Units/ml
Eotaxin (serum cytokines): 349.6 ± 85.4 pg/mL
G-CSF (serum cytokines): 4 ± 1.2 pg/mL
IL-6 (serum cytokines): 23.3 ± 21.6 pg/mL
IL-9 (serum cytokines): 15 ± 5.8 pg/mL
IL-12 (serum cytokines): 21.9 ± 3.5 pg/mL
IL-17A (serum cytokines): 4.9 ± 3.1 pg/mL
IP-10 (serum cytokines): 52.8 ± 20.8 pg/mL
MCP-1 (serum cytokines): 139.3 ± 43.4 pg/mL
MCP-3 (serum cytokines): 151.9 ± 20 pg/mL
MIP-1α (serum cytokines): 2.4 ± 0.6 pg/mL
MIP-1β (serum cytokines): 3.2 ± 1.1 pg/mL
IFN-γ (serum cytokines; isoferulic acid 5 mg/kg): 120.6 ± 37.1 pg/mL
Proliferation of Granulocytes, bone marros [3]: 27.8 ± 8.2 %
Proliferation of Granulocytes, spleen [3]: 26.8 ± 12.5 %
Proliferation of NK cells, spleen [3]: 14 ± 9 %
